{"source": "patent US5397774A", "about": "“Pyrazolopyrimidine and pyrimidinyl bisphosphonic esters as anti-inflammatories” (The Upjohn Company, priority 1993, dated 1995)", "system": "DTH granuloma (DTH GRA) lesion in mBSA-sensitized mice", "assay": "Delayed Type Hypersensitivity Granuloma Assay (DTH GRA) model for inflammation", "format": "in vivo, mouse", "conditions": "for inhibition in vivo at 10 mg/kg / % Inhibition: 10 mg/kg PO, mouse DTH granuloma excised after nine days; for inhibition in vivo at 50 mg/kg: footnote a: tested at 50 mg/kg", "procedure": "This assay is described by Dunn, C.\nBriefly, mBSA-sensitized mice have a DTH granuloma (DTH GRA) lesion induced by subcutaneously implanting a mBSA-soaked filter which is excised after nine days. Compounds are administered to the mice to determine their effect on the lesions. The results are recorded as percent inhibition. […] Inhibition of 10 to 20% is considered to indicate anti-granuloma activity.\nAgain, as in Table 1, the results are recorded as percent inhibition. […] Inhibition of 10 to 20% is considered to indicate anti-granuloma activity. […]", "key": {"[1]": {"conditions": "Mus musculus, po, 216 h, Table 2, Formula 2 compounds"}, "[2]": {"conditions": "Mus musculus, po, 216 h, Table 1, Formula 1 compounds"}, "[3]": {"conditions": "Mus musculus, po, 216 h, Table 1, Formula 1 compounds, PO"}}, "note": "Structures can show the parent of a compound that is named as a salt."}
{"molecule": "C=CCn1c(CCC(P(=O)(OCC)OCC)P(=O)(OCC)OCC)nc(-c2ccccc2)cc1=O", "note": "[t, (3-(2-(3-Allyl-4-oxo-6-phenyl-4(3H)-pyrimidinyl))-propylidine)bisphosphonic acid tetraethyl ester]", "values": [{"measurement": "inhibition in vivo at 10 mg/kg", "setting": "[1]", "result": 7, "unit": "%"}]}
{"molecule": "CCOP(=O)(OCC)C(CCc1nc(-c2ccccc2)cc(=O)n1CC)P(=O)(OCC)OCC", "note": "[ii, (3-(2-(3-Ethyl-4-oxo-6-phenyl-4(3H)-pyrimidinyl))-propylidine)bisphosphonic acid tetraethyl ester]", "values": [{"measurement": "inhibition in vivo at 10 mg/kg", "setting": "[1]", "result": 12, "unit": "%"}]}
{"molecule": "3-(7-Chloro-3-(α,α,α-trifluoro-o-tolyl)-4(3H)-quinazolinone)-propylidine)bisphosphonic acid tetraethyl ester [pp]", "values": [{"measurement": "% Inhibition", "setting": "Table 2, Formula 2 compounds", "result": 24, "unit": "%"}]}
{"molecule": "CCOP(=O)(OCC)C(CCc1cc(C)nc2c(Br)c(C)nn12)P(=O)(OCC)OCC", "note": "[d, (3-(3-Bromo-2,5-dimethyl-pyrazolo(1,5-a)pyrimidin-7-yl)-propylidene)bisphosphonic acid tetraethyl ester]", "values": [{"measurement": "inhibition in vivo at 10 mg/kg", "setting": "[2]", "result": 44, "unit": "%"}]}
{"molecule": "Cc1cc(CCC(P2(=O)OCC(C)(C)CO2)P2(=O)OCC(C)(C)CO2)n2nc(C)c(C#N)c2n1", "note": "[n, (3-(3-Cyano-2,5-dimethyl-pyrazolo(1,5-a)pyrimidin-7-yl)-propylidene)bis(5,5-dimethyl-2,2'-dioxide-1,3,2-dioxaphosphorinane)]", "values": [{"measurement": "inhibition in vivo at 10 mg/kg", "setting": "216 h, Table 1, Formula 1 compounds", "result": 45, "unit": "%"}]}
{"molecule": "CCOP(=O)(OCC)C(CCc1nc(-c2ccc(N(C)C)cc2)cc(=O)n1C)P(=O)(OCC)OCC", "note": "[cc, (3-(2-(3-Methyl-4-oxo-6-(4-dimethylaminophenyl)-4(3H)-pyrimidinyl))-propylidine)bisphosphonic acid tetraethyl ester]", "values": [{"measurement": "inhibition in vivo at 10 mg/kg", "setting": "[1]", "result": 63, "unit": "%"}]}
{"molecule": "CCOP(=O)(OCC)C(CCc1nc(-c2cccc(F)c2)cc(=O)n1C)P(=O)(OCC)OCC", "note": "[s, (3-(2-(3-Methyl-4-oxo-6-(3-fluoro-phenyl)-4(3H)-pyrimidinyl))-propylidine)bisphosphonic acid tetraethyl ester]", "values": [{"measurement": "inhibition in vivo at 10 mg/kg", "setting": "[1]", "result": 32, "unit": "%"}]}
{"molecule": "COP(=O)(OC)C(CCc1cc(C)nc2c(C#N)c(C)nn12)P(=O)(OC)OC", "note": "[m, (3-(3-Cyano-2,5-dimethyl-pyrazolo(1,5-a)pyrimidin-7-yl)-propylidene)bisphosphonic acid tetramethyl ester]", "values": [{"measurement": "inhibition in vivo at 10 mg/kg", "setting": "[2]", "result": 41, "unit": "%"}]}
{"molecule": "3-(7-Chloro-3-(2-fluoro-phenyl)-4(3H)-quinazolinone)-propylidine)bisphosphonic acid tetraethyl ester [qq]", "values": [{"measurement": "% Inhibition", "setting": "Table 2, Formula 2 compounds", "result": 29, "unit": "%"}]}
{"molecule": "CCOP(=O)(OCC)C(CCc1nc(-c2ccccc2)cc(=O)n1Cc1ccccc1)P(=O)(OCC)OCC", "note": "[r, (3-(2-(3-Benzyl-4-oxo-6-phenyl-4(3H)-pyrimidinyl))-propylidine)bisphosphonic acid tetraethyl ester]", "values": [{"measurement": "inhibition in vivo at 10 mg/kg", "setting": "[1]", "result": 17, "unit": "%"}]}
{"molecule": "C=CCn1c(CCC(P(=O)(OCC)OCC)P(=O)(OCC)OCC)nc(-c2ccccc2)cc1=O", "note": "[hh, (3-(2-(3-Allyl-4-oxo-6-phenyl-4(3H)-pyrimidinyl))-propylidine)bisphosphonic acid tetraethyl ester]", "values": [{"measurement": "% Inhibition", "setting": "Table 2, Formula 2 compounds, 10 mg/kg", "result": 11, "unit": "%"}]}
{"molecule": "Cn1c(CCC(P2(=O)OCC(C)(C)CO2)P2(=O)OCC(C)(C)CO2)nc(-c2cc(F)c(N3CCCCC3)c(F)c2F)cc1=O", "note": "[mm, (3-(2-(3-Methyl-4-oxo-6-(2,3,5-trifluoro-4-piperidinophenyl)-4(3H)-pyrimidinyl))-propylidine)bis(5,5-dimethyl-2,2'-dioxide-1,3,2-dioxaphosphorinane)]", "values": [{"measurement": "inhibition in vivo at 10 mg/kg", "setting": "216 h, Table 2, Formula 2 compounds", "result": 50, "unit": "%"}]}
{"molecule": "CCOP(=O)(OCC)C(CCc1nc(-c2ccc(Br)cc2)cc(=O)n1C)P(=O)(OCC)OCC", "note": "[aa, (3-(2-(3-Methyl-4-oxo-6-(4-bromophenyl)-4(3H)-pyrimidinyl))-propylidine)bisphosphonic acid tetraethyl ester]", "values": [{"measurement": "inhibition in vivo at 10 mg/kg", "setting": "[1]", "result": 20, "unit": "%"}]}
{"molecule": "CCOP(=O)(OCC)C(CCc1cc(C)nc2c(C#N)c(C)nn12)P(=O)(OCC)OCC", "note": "[a, (3-(3-Cyano-2,5-dimethyl-pyrazolo(1,5-a)pyrimidin-7-yl)propylidene)bisphosphonic acid tetraethyl ester]", "values": [{"measurement": "inhibition in vivo at 10 mg/kg", "setting": "[2]", "result": 46, "unit": "%"}]}
{"molecule": "CCOP(=O)(OCC)C(CCc1nc(-c2cccc(OC)c2)cc(=O)n1C)P(=O)(OCC)OCC", "note": "[w, (3-(2-(3-Methyl-4-oxo-6-(3-methoxy-phenyl)-4(3H)-pyrimidinyl))-propylidine) bisphosphonic acid tetraethyl ester]", "values": [{"measurement": "inhibition in vivo at 10 mg/kg", "setting": "[1]", "result": 13, "unit": "%"}]}
{"molecule": "CCOP(=O)(OCC)C(CCc1cc(C)nc2c(I)c(-c3ccccc3)nn12)P(=O)(OCC)OCC", "note": "[j, (3-(3-Iodo-5-methyl-2-phenyl-pyrazolo(1,5-a)pyrimidin-7-yl)-propylidene)bisphosphonic acid tetraethyl ester]", "values": [{"measurement": "inhibition in vivo at 10 mg/kg", "setting": "[2]", "result": 53, "unit": "%"}]}
{"molecule": "CCOP(=O)(OCC)C(CCc1nc(-c2cccc(C(F)(F)F)c2)cc(=O)n1C)P(=O)(OCC)OCC", "note": "[x, (3-(2-(3-Methyl-4-oxo-6-(3-trifluoromethyl-phenyl)-4(3H)-pyrimidinyl))propylidine)bisphosphonic acid tetraethyl ester]", "values": [{"measurement": "inhibition in vivo at 10 mg/kg", "setting": "[1]", "result": 6, "unit": "%"}]}
{"molecule": "CCOP(=O)(OCC)C(CCc1cc(C)nc2c(Cl)c(-c3ccccc3)nn12)P(=O)(OCC)OCC", "note": "[k, (3-(3-Chloro-5-methyl-2-phenyl-pyrazolo(1,5-a)pyrimidin-7-yl)-propylidene)bisphosphonic acid tetraethyl ester]", "values": [{"measurement": "inhibition in vivo at 50 mg/kg", "setting": "[3]", "result": 31, "unit": "%"}]}
{"molecule": "CCCCCCOc1cc2nc(C)cc(CCC(P(=O)(OCC)OCC)P(=O)(OCC)OCC)n2n1", "note": "[h, (3-(2-Hexyloxy-5-methyl-pyrazolo(1,5-a)pyrimidin-7-yl)propylidene)-bisphosphonic acid tetraethyl ester]", "values": [{"measurement": "inhibition in vivo at 10 mg/kg", "setting": "[2]", "result": 49, "unit": "%"}]}
{"molecule": "CCOP(=O)(OCC)C(CCc1nc2cc(Cl)ccc2c(=O)n1C)P(=O)(OCC)OCC", "note": "[oo]", "values": [{"measurement": "% Inhibition", "setting": "Table 2, Formula 2 compounds", "result": 41, "unit": "%"}]}
{"molecule": "CCCn1c(CCC(P(=O)(OCC)OCC)P(=O)(OCC)OCC)nc(-c2ccccc2)cc1=O", "note": "[jj, (3-(2-(3-Propyl-4-oxo-6-phenyl-4(3H)-pyrimidinyl))-propylidine)bisphosphonic acid tetraethyl ester]", "values": [{"measurement": "inhibition in vivo at 10 mg/kg", "setting": "[1]", "result": 41, "unit": "%"}]}
{"molecule": "COP(=O)(OC)C(CCc1nc(-c2ccccc2)cc(=O)n1C)P(=O)(OC)OC", "note": "[z, (3-(2-(3-Methyl-4-oxo-6-phenyl-4(3H)-pyrimidinyl))-propylidine)bisphosphonic acid tetramethyl ester]", "values": [{"measurement": "inhibition in vivo at 10 mg/kg", "setting": "[1]", "result": 36, "unit": "%"}]}
{"molecule": "CCOP(=O)(OCC)C(CCc1c(Cl)c(C)nc2c(C#N)c(C)nn12)P(=O)(OCC)OCC", "note": "[o, (3-(6-Chloro-3-cyano-2,5-dimethyl-pyrazolo(1,5-a)pyrimidin-7-yl)-propylidene)bisphosphonic acid tetraethyl ester]", "values": [{"measurement": "inhibition in vivo at 10 mg/kg", "setting": "[2]", "result": 53, "unit": "%"}]}
{"molecule": "CCOP(=O)(OCC)C(CCc1cc(C)nc2cc(-c3ccccc3)nn12)P(=O)(OCC)OCC", "note": "[i, (3-(5-Methyl-2-phenyl-pyrazolo(1,5-a)pyrimidin-7-yl)-propylidene)bisphosphonic acid tetraethyl ester]", "values": [{"measurement": "inhibition in vivo at 10 mg/kg", "setting": "[2]", "result": 47, "unit": "%"}]}
{"molecule": "Cn1c(CCC(P(=O)(O)O)P(=O)(O)O)nc(-c2ccccc2)cc1=O", "note": "[q, (3-(2-(3-Methyl-4-oxo-6-phenyl-4(3H)-pyrimidinyl))-propylidine)bisphosphonic acid disodium salt]", "values": [{"measurement": "inhibition in vivo at 1 mg/kg", "setting": "Mus musculus, 216 h, Table 2, Formula 2 compounds, tested at 1 mg/kg, PO", "result": 57, "unit": "%"}]}
{"molecule": "CCOP(=O)(OCC)C(CCc1nc(-c2ccccc2)cc(=O)n1C)P(=O)(OCC)OCC", "note": "[p, (3-(2-(3-Methyl-4-oxo-6-phenyl-4(3H)-pyrimidinyl))-propylidine)bisphosphonic acid tetraethyl ester]", "values": [{"measurement": "inhibition in vivo at 10 mg/kg", "setting": "[1]", "result": 60, "unit": "%"}]}
{"molecule": "CCOP(=O)(OCC)C(CCc1cc(C)nc2cc(OC(=O)c3ccccc3)nn12)P(=O)(OCC)OCC", "note": "[f, (3-(2-Benzoyloxy-5-methyl-pyrazolo(1,5-a)pyrimidin-7-yl)-propylidene)bisphosphonic acid tetraethyl ester]", "values": [{"measurement": "inhibition in vivo at 10 mg/kg", "setting": "[2]", "result": 41, "unit": "%"}]}
{"molecule": "CCOP(=O)(OCC)C(CCc1nc(-c2ccc(OC)cc2)cc(=O)n1C)P(=O)(OCC)OCC", "note": "[bb, (3-(2-(3-Methyl-4-oxo-6-(4-methoxyphenyl)-4(3H)-pyrimidinyl))-propylidine)bisphosphonic acid tetraethyl ester]", "values": [{"measurement": "inhibition in vivo at 10 mg/kg", "setting": "[1]", "result": 22, "unit": "%"}]}
{"molecule": "CCOP(=O)(OCC)C(CCc1cc(C)nc2c(Br)c(-c3ccccc3)nn12)P(=O)(OCC)OCC", "note": "[l, (3-(3-Bromo-5-methyl-2-phenyl-pyrazolo(1,5-a)pyrimidin-7-yl)-propylidene)bisphosphonic acid tetraethyl ester]", "values": [{"measurement": "inhibition in vivo at 50 mg/kg", "setting": "[3]", "result": 23, "unit": "%"}]}
{"molecule": "CCOc1ccc(-c2cc(=O)n(C)c(CCC(P(=O)(OCC)OCC)P(=O)(OCC)OCC)n2)cc1", "note": "[ee, (3-(2-(3-Methyl-4-oxo-6-(4-ethoxyphenyl)-4(3H)-pyrimidinyl))-propylidine)bisphosphonic acid tetraethyl ester]", "values": [{"measurement": "inhibition in vivo at 10 mg/kg", "setting": "[1]", "result": 46, "unit": "%"}]}
{"molecule": "CCOP(=O)(OCC)C(CCc1cc(C)nc2c(C#N)c(-c3ccccc3)nn12)P(=O)(OCC)OCC", "note": "[c, (3-(3-Cyano-5-methyl-2-phenyl-pyrazolo(1,5-a)pyrimidin-7-yl)-propylidene)bisphosphonic acid tetraethyl ester]", "values": [{"measurement": "inhibition in vivo at 10 mg/kg", "setting": "[2]", "result": 26, "unit": "%"}]}
{"molecule": "CCOP(=O)(O)C(CCc1nc(-c2ccccc2)cc(=O)n1C)P(=O)(OCC)OCC", "note": "(stereo not drawn) [rr, (3-(2-(3-Methyl-4-oxo-6-phenyl-4(3H)-pyrimidinyl))-propylidine)bisphosphonic acid triethyl ester sodium salt]", "values": [{"measurement": "inhibition in vivo at 10 mg/kg", "setting": "[1]", "result": 50, "unit": "%"}]}
{"molecule": "CCOP(=O)(OCC)C(CCc1nc(-c2cccc(C)c2)cc(=O)n1C)P(=O)(OCC)OCC", "note": "[v, (3-(2-(3-Methyl-4-oxo-6-(3-methyl-phenyl)-4(3H)-pyrimidinyl))-propylidine)bisphosphonic acid tetraethyl ester]", "values": [{"measurement": "inhibition in vivo at 10 mg/kg", "setting": "[1]", "result": 40, "unit": "%"}]}
